Laboratory results published in patent publication US6667335B2, “Imidazole derivatives” (Hoffmann-La Roche Inc., priority 2001, dated 2003).

Key:
NMDA-receptor subtype 2B = biological target: T1, NMDA-receptor subtype 2B (Rattus norvegicus, UniProt P35439+Q00960); test: 3H-Ro 25-6981 binding (displacement) on rat brain membranes; settings: displacement of 5 nM 3H-Ro 25-6981, rat whole brain membranes (minus cerebellum and medulla oblongata), 2 hours at 4° C.
T1 construct: Membranes were prepared by homogenization of the whole brain minus cerebellum and medulla oblongata; from tissue; host or cells: rat whole brain minus cerebellum and medulla oblongata, membrane preparation
T1 sequence (Q00960 27-1482, other chains not shown): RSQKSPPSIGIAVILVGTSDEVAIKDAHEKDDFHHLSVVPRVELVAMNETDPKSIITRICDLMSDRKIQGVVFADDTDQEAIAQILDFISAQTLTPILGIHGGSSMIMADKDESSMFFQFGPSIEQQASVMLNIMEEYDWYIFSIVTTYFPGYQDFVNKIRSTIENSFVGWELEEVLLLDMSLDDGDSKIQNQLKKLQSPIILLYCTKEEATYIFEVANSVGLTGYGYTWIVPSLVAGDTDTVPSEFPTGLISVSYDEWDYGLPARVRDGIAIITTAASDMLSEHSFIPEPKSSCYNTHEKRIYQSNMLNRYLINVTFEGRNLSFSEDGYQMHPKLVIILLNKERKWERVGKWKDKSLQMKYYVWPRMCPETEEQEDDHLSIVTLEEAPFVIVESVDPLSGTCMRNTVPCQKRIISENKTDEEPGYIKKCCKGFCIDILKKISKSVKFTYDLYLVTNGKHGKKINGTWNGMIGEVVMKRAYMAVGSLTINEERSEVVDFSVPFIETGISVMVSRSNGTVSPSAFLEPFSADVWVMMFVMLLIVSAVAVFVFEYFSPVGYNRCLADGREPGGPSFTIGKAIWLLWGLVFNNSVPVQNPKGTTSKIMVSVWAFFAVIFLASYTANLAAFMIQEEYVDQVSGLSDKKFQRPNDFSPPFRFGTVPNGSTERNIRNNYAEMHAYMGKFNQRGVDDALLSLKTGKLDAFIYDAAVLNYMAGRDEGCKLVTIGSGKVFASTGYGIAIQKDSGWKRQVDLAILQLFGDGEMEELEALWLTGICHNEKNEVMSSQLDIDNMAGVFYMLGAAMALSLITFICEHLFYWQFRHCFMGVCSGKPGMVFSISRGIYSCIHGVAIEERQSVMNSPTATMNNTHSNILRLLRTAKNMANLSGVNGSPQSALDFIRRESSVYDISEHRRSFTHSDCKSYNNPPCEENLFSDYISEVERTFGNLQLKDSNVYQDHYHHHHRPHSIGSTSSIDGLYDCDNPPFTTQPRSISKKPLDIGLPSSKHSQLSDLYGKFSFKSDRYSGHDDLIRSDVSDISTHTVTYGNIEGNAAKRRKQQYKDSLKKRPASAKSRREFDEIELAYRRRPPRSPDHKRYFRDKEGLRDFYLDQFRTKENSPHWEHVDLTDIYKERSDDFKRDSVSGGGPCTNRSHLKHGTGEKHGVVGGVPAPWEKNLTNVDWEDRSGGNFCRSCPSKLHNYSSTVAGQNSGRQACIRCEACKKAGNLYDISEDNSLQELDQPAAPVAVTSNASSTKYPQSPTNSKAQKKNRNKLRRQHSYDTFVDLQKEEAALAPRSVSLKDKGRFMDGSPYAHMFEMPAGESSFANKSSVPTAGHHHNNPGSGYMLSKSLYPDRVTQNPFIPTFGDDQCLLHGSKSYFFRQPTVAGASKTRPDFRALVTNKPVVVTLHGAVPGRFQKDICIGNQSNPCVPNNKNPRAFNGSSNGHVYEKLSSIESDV

Structure (SMILES) | melting point | IC50 (NMDA-receptor subtype 2B) [nM]
Cc1nccn1Cc1cn(-c2cccc(I)c2)cn1.Cl.Cl [Example 176, 1H-Imidazole, 1-[[1-(3-Iodophenyl)-1H-imidazol-4-yl]methyl]-2-methyl-, Hydrochloride (1:2)] | > 222 °C (dec.) | 32
CCc1nccn1Cc1cn(-c2cc(F)cc(C(F)(F)F)c2)cn1.Cl.Cl [Example 177, 1H-Imidazole, 2-Ethyl-1-[[1-[3-fluoro-5(trifluoromethyl)phenyl]-1H-imidazol-4-yl]methyl]-, Hydrochloride (1:2)] | 243 to 244 °C | 37.5
Cc1nccn1Cc1cn(-c2cc(F)cc(C(F)(F)F)c2)cn1.Cl.Cl [Example 178, 1H-Imidazole, 1-[[1-[3-Fluoro-5(trifluoromethyl)phenyl]-1H-imidazol-4-yl]methyl]-2-methyl-, Hydrochloride (1:2)] | > 250 °C | 74
COc1cc(-n2cnc(Cn3ccnc3C)c2)cc(C(F)(F)F)c1.Cl.Cl [Example 180, 1H-Imidazole, 1-[[1-[3-Methoxy-5(trifluoromethyl)phenyl]-1H-imidazol-4-yl]methyl]-2-methyl-, Hydrochloride (1:2)] | 246 to 247 °C | 50
Cc1nccn1Cc1cn(-c2cccc(C(C)(C)C)c2)cn1.Cl.Cl [Example 183, 1H-Imidazole, 1-[[1-(3-tert-Butylphenyl)-1H-imidazol-4-yl]methyl]-2-methyl-, Hydrochloride (1:2)] | > 200 °C (dec.) | 52

Second part, the compound after the results:

melting point | IC50 (NMDA-receptor subtype 2B) [nM] | Structure (SMILES)
221 to 222 °C | 52 | Cc1nccn1Cc1cn(-c2ccc(OC(F)(F)F)c(Cl)c2)cn1.Cl.Cl [Example 186, 1H-Imidazole, 1-[[1-[3-Chloro-4(trifluoromethoxy)phenyl]-1H-imidazol-4-yl]methyl]-2-methyl-, Hydrochloride (1:2)]
216 to 217 °C | 53 | CCc1nccn1Cc1cn(-c2cccc(OC(F)F)c2)cn1.Cl.Cl [Example 189, 1H-Imidazole, 1-[[1-[3-(Difluoromethoxy)phenyl]-1H-imidazol-4-yl]methyl]-2-ethyl-, Hydrochloride (1:2)]
205 to 207 °C | 55 | Cc1nccn1Cc1cn(-c2cccc(Br)c2)cn1.Cl.Cl [Example 192, 1H-Imidazole, 1-[[1-(3-Bromophenyl)-1H-imidazol-4-yl]methyl]-2-methyl-, Hydrochloride (1:2)]
195 to 196 °C | 79 | Cc1nccn1Cc1cn(-c2cccc(C(F)F)c2)cn1.Cl.Cl [Example 194, 1H-Imidazole, 1-[[1-[3-(Difluoromethyl)phenyl]-1H-imidazol-4-yl]methyl]-2-methyl-, Hydrochloride (1:2)]
> 200 °C (dec.) | 98 | CCc1nccn1Cc1cn(-c2cc(F)cc(Br)c2)cn1.Cl.Cl [Example 199, 1H-Imidazole, 1-[[1-(3-Bromo-5-fluorophenyl)-1H-imidazol-4-yl]methyl]-2-ethyl-, Hydrochloride (1:2)]
> 245 °C (dec.) | 10 | Cl.Cl.Nc1nccn1Cc1cn(-c2ccc3c(c2)OCO3)cn1 [Example 224, 1-(1-Benzo[1,3]dioxol-5-yl-1H-imidazol-4-ylmethyl)-1H-imidazol-2-ylamine Hydrochloride (1:2)]
